Measured values published in patent US10428080B2, “TBK/IKK inhibitor compounds and uses thereof” (Merck Patent GmbH, priority 2015, dated 2019).
Structures can show the parent of a compound that is named as a salt. Where two headings read alike, the source gives them in different places.

What was measured:
[1] = test system: phosphorylation of the IRF-3 protein in MDA-MB-468 cells; assay: pIRF3 immunocytochemistry cell based assay; conditions: Homo sapiens
Summary of the method: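 After 2 h stimulation with Poly(I:C) (10 ug/ml), following 1 h compound pre-treatment (10-point, 3-fold dilution, top 10 uM), MDA-MB-468 cells were fixed and stained with anti-pIRF3 antibody. pIRF3 fluorescence was normalized to PI staining or cell count on an Acumen cytometer. IC50 curves were derived from this.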

[2] = biological target: T1, TBK1 (Homo sapiens, UniProt Q9UHD2); assay: TBK Biochemical Assay; conditions: read-out: TBK1 IC50
T1 sequence (Q9UHD2 1-729): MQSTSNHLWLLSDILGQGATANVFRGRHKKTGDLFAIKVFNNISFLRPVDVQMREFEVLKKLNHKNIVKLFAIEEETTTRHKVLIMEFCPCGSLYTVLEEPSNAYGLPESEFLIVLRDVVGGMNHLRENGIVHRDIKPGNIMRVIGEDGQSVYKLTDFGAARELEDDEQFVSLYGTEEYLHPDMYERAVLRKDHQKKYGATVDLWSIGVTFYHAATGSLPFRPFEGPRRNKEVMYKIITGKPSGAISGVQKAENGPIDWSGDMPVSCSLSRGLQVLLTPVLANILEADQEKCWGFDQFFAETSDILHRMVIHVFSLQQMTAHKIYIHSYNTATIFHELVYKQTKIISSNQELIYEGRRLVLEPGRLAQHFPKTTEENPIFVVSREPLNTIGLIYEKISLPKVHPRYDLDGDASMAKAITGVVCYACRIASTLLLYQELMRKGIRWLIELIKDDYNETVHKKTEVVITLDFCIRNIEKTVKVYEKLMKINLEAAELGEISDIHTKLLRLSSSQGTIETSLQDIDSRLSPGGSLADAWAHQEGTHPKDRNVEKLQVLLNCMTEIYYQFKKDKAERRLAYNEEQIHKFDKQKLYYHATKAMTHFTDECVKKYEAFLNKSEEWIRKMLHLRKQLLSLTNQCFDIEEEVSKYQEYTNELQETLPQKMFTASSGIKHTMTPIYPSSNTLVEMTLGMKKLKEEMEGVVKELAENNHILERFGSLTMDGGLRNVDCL
Summary of the method: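 Caliper LabChip mobility-shift readout of substrate and product after 90 min of TBK1 reaction at 25° C and stop-buffer addition. Compounds tested in 1:4 serial dilution over 10 points from 30 uM final at 1% DMSO; staurosporine 10 uM final defines full inhibition.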

[3] = biological target: T2, IKKε (Homo sapiens, UniProt Q14164); assay: IKKe Biochemical Assay; conditions: read-out: IKKε IC50
T2 sequence (Q14164 1-716): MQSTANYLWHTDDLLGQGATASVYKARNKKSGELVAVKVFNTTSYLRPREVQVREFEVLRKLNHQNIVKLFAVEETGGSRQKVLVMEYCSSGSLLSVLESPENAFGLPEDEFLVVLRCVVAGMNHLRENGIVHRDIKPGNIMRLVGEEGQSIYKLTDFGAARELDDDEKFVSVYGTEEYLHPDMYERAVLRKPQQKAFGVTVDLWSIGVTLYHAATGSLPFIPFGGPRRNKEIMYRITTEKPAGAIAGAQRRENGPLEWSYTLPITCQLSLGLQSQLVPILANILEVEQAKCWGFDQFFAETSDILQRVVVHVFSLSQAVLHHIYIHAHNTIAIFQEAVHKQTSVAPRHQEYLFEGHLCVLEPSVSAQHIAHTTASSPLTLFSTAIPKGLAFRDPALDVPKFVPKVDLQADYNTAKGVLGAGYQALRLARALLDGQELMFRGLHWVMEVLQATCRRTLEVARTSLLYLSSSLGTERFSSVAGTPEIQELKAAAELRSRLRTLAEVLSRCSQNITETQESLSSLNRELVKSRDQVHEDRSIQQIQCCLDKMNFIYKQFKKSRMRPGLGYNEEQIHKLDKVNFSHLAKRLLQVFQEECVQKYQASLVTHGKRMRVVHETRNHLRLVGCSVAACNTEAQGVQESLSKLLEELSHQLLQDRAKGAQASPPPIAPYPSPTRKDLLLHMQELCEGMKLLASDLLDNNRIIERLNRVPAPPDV
Summary of the method: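 Activity was measured as mobility-shift separation of phosphorylated from unphosphorylated substrate on a LabChip EZ Reader. Compound was titrated from 30 uM final in 10 points, 1:4 steps, with 1% DMSO, and enzyme plus substrate reacted 90 min at 25° C before stop buffer. Control wells held 10 uM staurosporine.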

[4] = MDA-MB-468 cells, Poly(I:C) stimulation, read-out: pIRF3 IC50
[5] = MDA-MB-468, read-out: pIRF3 IC50

Row | SMILES | IC50 [1, 4] | IC50 [2] | IC50 [3] | IC50 [1, 5]
1 | COc1cc(C(=O)N(C)CCO)ncc1-c1cc2nccc(-c3ccc(OC4CCOCC4)c(C#N)n3)c2o1 [Compound 376, 5-[7-[6-cyano-5-(oxan-4-yloxy)pyridin-2-yl]furo[3,2-b]pyridin-2-yl]-N-(2-hydroxyethyl)-4-methoxy-N-methylpyridine-2-carboxamide] | < 100 nM | < 100 nM | < 100 nM | 
2 | COc1cc(C(=O)N(C)CCO)ncc1-c1cc2nccc(-c3ccc(N4CC[C@H](F)C4)c(C#N)c3)c2o1 [Compound 379, 5-{7-[3-Cyano-4-((S)-3-fluoro-pyrrolidin-1-yl)-phenyl]-furo[3,2-b]pyridin-2-yl}-4-methoxy-pyridine-2-carboxylic acid (2-hydroxy-ethyl)-methyl-amide] | < 100 nM | < 100 nM | < 100 nM | 
3 | COc1cc(C(=O)N(C)C)ncc1-c1cc2nccc(-c3ccc(OC4CCOCC4)c(C#N)n3)c2o1 [Compound 387, 5-[7-[6-cyano-5-(oxan-4-yloxy)pyridin-2-yl]furo[3,2-b]pyridin-2-yl]-4-methoxy-N,N-dimethylpyridine-2-carboxamide hydrochloride] | 100 to 1000 nM | < 100 nM | < 100 nM | 
4 | COc1cc(-c2cc3nccc(-c4ccc(OC5CCOCC5)c(C#N)c4)c3o2)ncc1C(=O)N(C)C [Compound 391, 6-[7-[3-cyano-4-(oxan-4-yloxy)phenyl]furo[3,2-b]pyridin-2-yl]-4-methoxy-N,N-dimethylpyridine-3-carboxamide] |  | 100 to 1000 nM | < 100 nM | 1000 to 5000 nM
5 | COc1cc(-c2cc3nccc(-c4ccc(OC5CCOCC5)c(C#N)c4)c3o2)cnc1C(=O)N(C)C [Compound 393, 5-[7-[3-cyano-4-(oxan-4-yloxy)phenyl]furo[3,2-b]pyridin-2-yl]-3-methoxy-N,N-dimethylpyridine-2-carboxamide] | 1000 to 5000 nM | 100 to 1000 nM | < 100 nM | 
6 | CN(C)C(=O)c1cc(-c2cc3nccc(-c4ccc(OC5CCOCC5)c(C#N)c4)c3o2)n(C)c1 [Compound 400, 5-[7-[3-cyano-4-(oxan-4-yloxy)phenyl]furo[3,2-b]pyridin-2-yl]-N,N,1-trimethyl-1H-pyrrole-3-carboxamide] |  | < 100 nM | < 100 nM | 100 to 1000 nM
7 | COc1c(C(=O)N(C)C)nn(C)c1-c1cc2nccc(-c3ccc(OC4CCOCC4)c(C#N)c3)c2o1 [Compound 401, 5-[7-[3-cyano-4-(oxan-4-yloxy)phenyl]furo[3,2-b]pyridin-2-yl]-4-methoxy-N,N,1-trimethyl-1H-pyrazole-3-carboxamide hydrochloride] |  | < 100 nM | < 100 nM | 100 to 1000 nM
8 | COc1cc(C(=O)N(C)C)n(C)c1-c1cc2nccc(-c3ccc(OC4CCOCC4)c(C#N)c3)c2o1 [Compound 402, 5-[7-[3-cyano-4-(oxan-4-yloxy)phenyl]furo[3,2-b]pyridin-2-yl]-4-methoxy-N,N,1-trimethyl-1H-pyrrole-2-carboxamide] | < 100 nM | < 100 nM | < 100 nM | 

Now from value to molecule, other results behind:

Row | IC50 [1, 4] | IC50 [2] | IC50 [3] | SMILES | IC50 [1, 5]
9 | < 100 nM | < 100 nM | < 100 nM | COc1cc(C(=O)N[C@@H]2CC[C@@H]3CN(C)C[C@@H]32)ccc1-c1cc2nccc(-c3ccc(OC4CCOCC4)c(C#N)c3)c2o1 [Compound 373, N-[(3aR,4R,6aS)-2-methyl-octahydrocyclopenta[c]pyrrol-4-yl]-4-[7-[3-cyano-4-(oxan-4-yloxy)phenyl]furo[3,2-b]pyridin-2-yl]-3-methoxybenzamide] | 
10 | < 100 nM | < 100 nM | < 100 nM | COc1cc(C(=O)N(C)CCO)ncc1-c1cc2nccc(-c3ccc(N4CC[C@@H](F)C4)c(C#N)c3)c2o1 [Compound 380, 5-{7-[3-Cyano-4-((R)-3-fluoro-pyrrolidin-1-yl)-phenyl]-furo[3,2-b]pyridin-2-yl}-4-methoxy-pyridine-2-carboxylic acid (2-hydroxy-ethyl)-methyl-amide] | 
11 | 100 to 1000 nM | < 100 nM | < 100 nM | COc1cc(C(=O)N(C)C)ncc1-c1cc2nccc(-c3cnc(OC4CCOCC4)c(C#N)c3)c2o1 [Compound 388, 5-[7-[5-cyano-6-(oxan-4-yloxy)pyridin-3-yl]furo[3,2-b]pyridin-2-yl]-4-methoxy-N,N-dimethylpyridine-2-carboxamide] | 
12 | 1000 to 5000 nM | 100 to 1000 nM | 100 to 1000 nM | COc1cc(-c2cc3nccc(-c4ccc(NC5CCOCC5)c(C#N)c4)c3o2)cnc1C(=O)N(C)C [Compound 394, 5-(7-[3-cyano-4-[(oxan-4-yl)amino]phenyl]furo[3,2-b]pyridin-2-yl)-3-methoxy-N,N-dimethylpyridine-2-carboxamide] | 
13 | 100 to 1000 nM | < 100 nM | < 100 nM | COc1cc(C(=O)N(C)C)nnc1-c1cc2nccc(-c3ccc(OC4CCOCC4)c(C#N)c3)c2o1 [Compound 395, 6-[7-[3-cyano-4-(oxan-4-yloxy)phenyl]furo[3,2-b]pyridin-2-yl]-5-methoxy-N,N-dimethylpyridazine-3-carboxamide] | 
14 | < 100 nM | < 100 nM | < 100 nM | COc1cc(C(=O)N[C@H]2[C@@H]3C[C@H]2CN(C)C3)cnc1-c1cc2nccc(-c3ccc(OC4CCOCC4)c(C#N)c3)c2o1 [Compound 397, 6-{7-[3-Cyano-4-(tetrahydro-pyran-4-yloxy)-phenyl]-furo[3,2-b]pyridin-2-yl}-5-methoxy-N-((1S,5R,6R)-3-methyl-3-aza-bicyclo[3.10.1]hept-6-yl)-nicotinamide] | 
15 | < 100 nM | < 100 nM | < 100 nM | COc1cc(C(=O)N[C@@H]2[C@@H]3C[C@H]2CN(C)C3)cnc1-c1cc2nccc(-c3ccc(OC4CCOCC4)c(C#N)c3)c2o1 [Compound 398, 6-{7-[3-Cyano-4-(tetrahydro-pyran-4-yloxy)-phenyl]-furo[3,2-b]pyridin-2-yl}-5-methoxy-N-((1R,5S,6S)-3-methyl-3-aza-bicyclo[3.10.1]hept-6-yl)-nicotinamide] | 
16 | 100 to 1000 nM | < 100 nM | < 100 nM | COc1cc(C(=O)N(C)C)cnc1-c1cc2nccc(-c3ccc(OC4CCNCC4(F)F)c(C#N)c3)c2o1 (stereo not drawn) [Compound 403, 6-(7-[3-cyano-4-[(3,3-difluoropiperidin-4-yl)oxy]phenyl]furo[3,2-b]pyridin-2-yl)-5-methoxy-N,N-dimethylpyridine-3-carboxamide] | 
17 | 100 to 1000 nM | < 100 nM | < 100 nM | COc1cc(C(=O)N(C)C)cnc1-c1cc2nccc(-c3ccc(OC4CCN(C)CC4(F)F)c(C#N)c3)c2o1 (stereo not drawn) [Compound 404, 6-(7-[3-cyano-4-[(3,3-difluoro-1-methylpiperidin-4-yl)oxy]phenyl]furo[3,2-b]pyridin-2-yl)-5-methoxy-N,N-dimethylpyridine-3-carboxamide] | 
18 | 100 to 1000 nM | < 100 nM | < 100 nM | COc1cc(C(=O)N2CC3C2CCN3C)cnc1-c1cc2nccc(-c3ccc(OC4CCOCC4)c(C#N)c3)c2o1 (stereo not drawn) [Compound 405, 5-[2-[3-methoxy-5-([2-methyl-2,6-diazabicyclo[3.2.0]heptan-6-yl]carbonyl)pyridin-2-yl]furo[3,2-b]pyridin-7-yl]-2-(oxan-4-yloxy)benzonitrile hydrochloride] | 
